Reference: patent US20230002320A1, “COMPOUNDS AND COMPOSITIONS FOR TREATING CONDITIONS ASSOCIATED WITH STING ACTIVITY” (IFM Due, Inc., priority 2019, published 2023)

Molecular target: hSTING (Homo sapiens, UniProt Q86WV6)
Test: STING reporter assay (luciferase) in THP1-Dual KO-IFNAR2 cells activated with 2'3' cGAMP
Assay type: cell-based
Settings: 15 μM 2'3' cGAMP, 24 h
Experimental: STING pathway activation by the compounds described herein was measured using THP1-Dual™ cells (KO-IFNAR2).
THP1-Dual™ KO-IFNAR2 Cells (obtained from invivogen) were maintained in RPMI, 10% FCS, 5 ml P/S, 2 mM L-glut, 10 mM Hepes, and 1 mM sodium pyruvate. Compounds were spotted in empty 384 well tissue culture plates (Greiner 781182) by Echo for a final concentration of 0.0017-100 μM. Cells were plated into the TC plates at 40 μL per well, 2×10E6 cells/mL. For activation with STING ligand, 2′3′ cGAMP (MW 718.38, obtained from Invivogen), was prepared in Optimem media.
The following solutions were prepared for each 1×384 plate: • Solution A: 2 mL Optimem with one of the following stimuli: • 60 uL of 10 mM 2′3′ cGAMP ->150 μM stock • Solution B: 2 mL Optimem with 60 μL Lipofectamine 2000->Incubate 5 min at RT
2 mL of solution A and 2 ml Solution B was mixed and incubated for 20 min at room temperature (RT). 20 uL of transfection solution (A+B) was added on top of the plated cells, with a final 2′3′ cGAMP concentration of 15 μM. The plates were then centrifuged immediately at 340 g for 1 minute, after which they were incubated at 37° C., 5% CO2, >98% humidity for 24 h. Luciferase reporter activity was then measured. EC50 values were calculated by using standard methods known in the art.
(§1) Luciferase reporter assay: 10 μL of supernatant from the assay was transferred to white 384-plate with flat bottom and squared wells. one pouch of QUANTI-Luc™ Plus was dissolved in 25 mL of water. 100 μL of QLC Stabilizer per 25 mL of QUANTI-Luc™ Plus solution was added. 50 μL of QUANTI-Luc™ Plus/QLC solution per well was then added. Luminescence was measured on a Platereader (e.g., Spectramax I3X (Molecular Devices GF3637001)).
Luciferase reporter activity was then measured. EC50 values were calculated by using standard methods known in the art.
as §1, with “squared wells,” for “squared wells.”, “Luminescence is” for “Luminescence was”

hSTING, sequence (Q86WV6 whole entry R71H/G230A/H232R/R293Q, form open): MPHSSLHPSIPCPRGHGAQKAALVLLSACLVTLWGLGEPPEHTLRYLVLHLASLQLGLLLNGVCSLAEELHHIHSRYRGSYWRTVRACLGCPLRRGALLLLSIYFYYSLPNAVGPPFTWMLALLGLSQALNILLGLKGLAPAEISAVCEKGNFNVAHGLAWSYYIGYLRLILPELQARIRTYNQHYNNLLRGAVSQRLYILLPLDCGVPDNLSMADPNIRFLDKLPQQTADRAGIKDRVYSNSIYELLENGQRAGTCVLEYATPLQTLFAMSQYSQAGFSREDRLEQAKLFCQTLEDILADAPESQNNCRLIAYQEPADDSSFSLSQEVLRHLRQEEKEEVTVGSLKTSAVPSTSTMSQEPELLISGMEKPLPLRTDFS

Compound | EC50 [µM]
O=C(Nc1ccc(C(F)(F)F)cc1)Nc1c[nH]c2ccc(-c3ccccc3)cc12 [Compound 101, 1-(5-phenyl-1H-indol-3-yl)-3-(4-(trifluoromethyl)phenyl)urea] | 0.2 to 1
CC(C)n1cc(-c2ccc3[nH]cc(NC(=O)Nc4ccc(C(F)(F)F)cc4)c3c2)cn1 [Compound 104, 1-(5-(1-isopropyl-1H-pyrazol-4-yl)-1H-indol-3-yl)-3-(4-(trifluoromethyl)phenyl)urea] | 0.04 to 0.2
O=C(Nc1ccc(C(F)(F)F)cc1)Nc1c[nH]c2ccc(-c3ccc(CO)c(F)c3)cc12 [Compound 127, 1-(5-(3-fluoro-4-(hydroxymethyl)phenyl)-1H-indol-3-yl)-3-(4-(trifluoromethyl)phenyl)urea] | 0.2 to 1
CCCCCCc1ccc(-c2ccc3[nH]cc(NC(=O)Nc4ccc(C(F)(F)F)cc4)c3c2)cc1 [Compound 211, 1-(5-(4-hexylphenyl)-1H-indol-3-yl)-3-(4-(trifluoromethyl)phenyl)urea] | 0.2 to 1
O=C(Nc1ccc(C(F)(F)F)cc1)Nc1c[nH]c2cc(F)c(-c3cnn(C(F)F)c3)cc12 [Compound 212, 1-(5-(1-(difluoromethyl)-1H-pyrazol-4-yl)-6-fluoro-1H-indol-3-yl)-3-(4-(trifluoromethyl)phenyl)urea] | 0.04 to 0.2
CC(C)n1cc(-c2cc3c(NC(=O)Nc4ccc(C(F)(F)F)cc4)c[nH]c3cc2F)cn1 [Compound 213] | 0.2 to 1
Cn1ccc(-c2ccc3[nH]cc(NC(=O)Nc4ccc(C(F)(F)F)cc4)c3c2)n1 [Compound 214, 1-(5-(1-methyl-1H-pyrazol-3-yl)-1H-indol-3-yl)-3-(4-(trifluoromethyl)phenyl)urea] | 1 to 5
CN(C)C(=O)c1ccc(-c2ccc3[nH]cc(NC(=O)Nc4ccc(C(F)(F)F)cc4)c3c2)c(F)c1 [Compound 215] | 0.2 to 1
N#Cc1csc(-c2ccc3[nH]cc(NC(=O)Nc4ccc(C(F)(F)F)cc4)c3c2)c1 [Compound 216] | 0.04 to 0.2
CC(C)(C#N)c1ccc(-c2ccc3[nH]cc(NC(=O)Nc4ccc(C(F)(F)F)cc4)c3c2)cc1 [Compound 217] | 5 to 100
O=C(Nc1ccc(C(F)(F)F)cc1)Nc1c[nH]c2ccc(-c3ccc(OC(F)F)cc3)cc12 [Compound 218] | 0.2 to 1
CN(C)C(=O)c1ccc(-c2ccc3[nH]cc(NC(=O)Nc4ccc(C(F)(F)F)cc4)c3c2)cc1 [Compound 219] | 0.2 to 1
O=C(Nc1ccc(C(F)(F)F)cc1)Nc1c[nH]c2ccc(-c3cccc(OC(F)(F)F)c3)cc12 [Compound 220] | 0.2 to 1
O=C(Nc1ccc(C(F)(F)F)cc1)Nc1c[nH]c2ccc(-c3cccc4ncccc34)cc12 [Compound 221, 1-(5-(quinolin-5-yl)-1H-indol-3-yl)-3-(4-(trifluoromethyl)phenyl)urea] | 0.2 to 1
O=C(Nc1ccc(C(F)(F)F)cc1)Nc1c[nH]c2ccc(-c3c(F)cccc3F)cc12 [Compound 222] | 1 to 5
CC(C)c1ccc(-c2ccc3[nH]cc(NC(=O)Nc4ccc(C(F)(F)F)cc4)c3c2)cc1 [Compound 223, 1-(5-(4-isopropylphenyl)-1H-indol-3-yl)-3-(4-(trifluoromethyl)phenyl)urea] | 0.2 to 1
O=C(Nc1ccc(C(F)(F)F)cc1)Nc1c[nH]c2ccc(-c3cccc4cccnc34)cc12 [Compound 224, 1-(5-(quinolin-8-yl)-1H-indol-3-yl)-3-(4-(trifluoromethyl)phenyl)urea] | 1 to 5
COc1cccc(-c2ccc3[nH]cc(NC(=O)Nc4ccc(C(F)(F)F)cc4)c3c2)c1 [Compound 225] | 0.2 to 1
O=C(Nc1ccc(C(F)(F)F)cc1)Nc1c[nH]c2ccc(-c3cccc(Cl)c3)cc12 [Compound 226] | 0.2 to 1
O=C(Nc1ccc(C(F)(F)F)cc1)Nc1c[nH]c2ccc(-c3cc(Cl)nc(Cl)c3)cc12 [Compound 227] | 0.2 to 1

Compound | EC50 [µM]
COCc1cncc(-c2ccc3[nH]cc(NC(=O)Nc4ccc(C(F)(F)F)cc4)c3c2)c1 [Compound 228] | 0.2 to 1
O=C(Nc1ccc(C(F)(F)F)cc1)Nc1c[nH]c2ccc(-c3cncc(Cl)c3)cc12 [Compound 229] | 0.2 to 1
O=C(Nc1ccc(C(F)(F)F)cc1)Nc1c[nH]c2ccc(-c3cccnc3)cc12 [Compound 230] | 0.2 to 1
CC(=O)c1ccc(-c2ccc3[nH]cc(NC(=O)Nc4ccc(C(F)(F)F)cc4)c3c2)s1 [Compound 231] | 0.2 to 1
N#CCCn1cc(-c2ccc3[nH]cc(NC(=O)Nc4ccc(C(F)(F)F)cc4)c3c2)cn1 [Compound 232] | 0.2 to 1
O=C(Nc1ccc(C(F)(F)F)cc1)Nc1c[nH]c2ccc(-c3cnn(-c4ccccc4)c3)cc12 [Compound 234] | 0.04 to 0.2
O=C(Nc1ccc(C(F)(F)F)cc1)Nc1c[nH]c2ccc(-c3cnn(CC4CC4)c3)cc12 [Compound 235] | 0.04 to 0.2
COCCn1cc(-c2ccc3[nH]cc(NC(=O)Nc4ccc(C(F)(F)F)cc4)c3c2)cn1 [Compound 236] | 0.2 to 1
CCn1cc(-c2ccc3[nH]cc(NC(=O)Nc4ccc(C(F)(F)F)cc4)c3c2)cn1 [Compound 237] | 0.04 to 0.2
CCCc1ccc(-c2ccc3[nH]cc(NC(=O)Nc4ccc(C(F)(F)F)cc4)c3c2)cc1 [Compound 238] | 1 to 5
O=C(Nc1ccc(C(F)(F)F)cc1)Nc1c[nH]c2ccc(-c3ccc(Cl)c(Cl)c3)cc12 [Compound 239] | 1 to 5
O=C(Nc1ccc(C(F)(F)F)cc1)Nc1c[nH]c2ccc(-c3cc(F)cc(F)c3)cc12 [Compound 240] | 0.2 to 1
O=C(Nc1ccc(C(F)(F)F)cc1)Nc1c[nH]c2ccc(-c3ccc(F)c(F)c3)cc12 [Compound 241] | 1 to 5
O=C(Nc1ccc(C(F)(F)F)cc1)Nc1c[nH]c2ccc(-c3ccc(F)cc3F)cc12 [Compound 242] | 1 to 5
CC(C)n1cc(-c2ccc3[nH]cc(NC(=O)Nc4ccc(C5CCCCC5)nc4)c3c2)cn1 [Compound 243] | 0.2 to 1
Nc1cc(-c2ccc3[nH]cc(NC(=O)Nc4ccc(C(F)(F)F)cc4)c3c2)ccn1 [Compound 274, 1-(5-(2-aminopyridin-4-yl)-1H-indol-3-yl)-3-(4-(trifluoromethyl)phenyl)urea] | 1 to 5
O=C(Nc1ccc(C(F)(F)F)cc1)Nc1c[nH]c2ccc(-c3ccc(CO)cc3)cc12 [Compound 282, 1-(5-(4-(hydroxymethyl)phenyl)-1H-indol-3-yl)-3-(4-(trifluoromethyl)phenyl)urea] | 1 to 5
CC(C)(C)Oc1ccc(-c2ccc3[nH]cc(NC(=O)Nc4ccc(C(F)(F)F)cc4)c3c2)cc1 [Compound 288, 1-(5-(4-(tert-butoxy)phenyl)-1H-indol-3-yl)-3-(4-(trifluoromethyl)phenyl)urea] | 0.2 to 1
CC(C)(O)Cn1cc(-c2ccc3[nH]cc(NC(=O)Nc4ccc(C(F)(F)F)cc4)c3c2)cn1 [Compound 297, 1-(5-(1-(2-hydroxy-2-methylpropyl)-1H-pyrazol-4-yl)-1H-indol-3-yl)-3-(4-(trifluoromethyl)phenyl)urea] | 0.2 to 1
